Measurements reported in US20070049564A1 (Wyeth, priority 2005, published 2007).
In brackets after ≈: the same amount, converted by molar mass. Where two headings read alike, the source gives them in different places.

Key:
Experiment in all cases: MIC, broth microdilution
E. coli GC 2235 = conditions: Escherichia coli
E. coli GC 2233 = conditions: Escherichia coli
E. coli GC 2234 = conditions: Escherichia coli
E. coli GC 2270 = conditions: Escherichia coli
E. coli GC 2271 = conditions: Escherichia coli
E. coli GC 4559 = conditions: Escherichia coli
E. coli GC 4560 = conditions: Escherichia coli
Protocol: Antimicrobial susceptibility testing. The in vitro activities of the antibiotics are determined by the broth microdilution method as recommended by the National Committee for Clinical Laboratory Standards (NCCLS) (1). Mueller-Hinton II broth (MHBII)(BBL Cockeysville, Md.) is the medium employed in the testing procedures. Microtiter plates containing serial dilutions of each antimicrobial agent are inoculated with each organism to yield the appropriate density (10^5 CFU/ml) in a 100 μl final volume. The plates are incubated for 18-22 hours at 35° C. in ambient air.
Representative compounds were first incubated in mouse serum for an hour prior to the in vitro testing against a panel of selected gram-positive and gram-negative bacteria strains. All compounds were also pre-incubated in water for an hour prior to testing as control. Representative compounds of Formula I were incubated in human serum prior to MIC determination.

E. coli GC 6465 = conditions: Escherichia coli
E. coli GC 3226 = conditions: Escherichia coli
E. coli GC 2203 = conditions: Escherichia coli
E. coli GC 1073 = conditions: Escherichia coli
S. typhimurium GC 2172 = conditions: Salmonella enterica, TYPHIMURIUM
S. aureus GC 6466 = conditions: Staphylococcus aureus
Protocol: Antimicrobial susceptibility testing. The in vitro activities of the antibiotics are determined by the broth microdilution method as recommended by the National Committee for Clinical Laboratory Standards (NCCLS) (1). Mueller-Hinton II broth (MHBII)(BBL Cockeysville, Md.) is the medium employed in the testing procedures. Microtiter plates containing serial dilutions of each antimicrobial agent are inoculated with each organism to yield the appropriate density (10^5 CFU/ml) in a 100 μl final volume. The plates are incubated for 18-22 hours at 35° C. in ambient air. […] Standard Pharmacological Test Procedures
Presented in Tables I-XIII are representative compounds of Formula I which were evaluated against a panel of 40 selected gram-positive and gram-negative bacteria strains by pre-incubation in water, mouse serum or human serum. Representative compounds were first incubated in mouse serum for an hour prior to the in vitro testing against a panel of selected gram-positive and gram-negative bacteria strains. All compounds were also pre-incubated in water for an hour prior to testing as control. Representative compounds of Formula I were incubated in human serum prior to MIC determination.

S. aureus GC 6467 = conditions: Staphylococcus aureus
S. aureus GC 1079 = conditions: Staphylococcus aureus
S. aureus GC 6335 = conditions: Staphylococcus aureus
S. aureus GC 6469 = conditions: Staphylococcus aureus
E. faecium GC 4556 = conditions: Enterococcus faecium
S. pyogenes GC 4563 = conditions: Streptococcus pyogenes
S. agalactiae GC 4564 = conditions: Streptococcus agalactiae

## COC(=O)N(CC(=O)Nc1cc(N(C)C)c2c(c1O)C(=O)C1=C(O)[C@]3(O)C(=O)C(C(N)=O)=C(O)[C@@H](N(C)C)[C@@H]3C[C@@H]1C2)C(C)(C)C [Example 60, methyl 2-{[(5aR,6aS,7S,10aS)-9-(aminocarbonyl)-4,7-bis(dimethylamino)-1,8,10a,11-tetrahydroxy-10,12-dioxo-5,5a,6,6a,7,10,10a,12-octahydrotetracen-2-yl]amino}-2-oxoethyl(tert-butyl)carbamate]
E. coli GC 2235; GC2235, read-out: MINIMAL INHIBITORY CONCENTRATION MIC, Human Serum
  MIC: 64 µg/mL (≈ 99.4 µM)
E. coli GC 2235; GC2235, read-out: MINIMAL INHIBITORY CONCENTRATION MIC, Mouse Serum
  MIC: 64 µg/mL (≈ 99.4 µM)
E. coli GC 2235; GC2235, read-out: MINIMAL INHIBITORY CONCENTRATION MIC, Water
  MIC: > 64 µg/mL
E. coli GC 2233; GC2233, read-out: MINIMAL INHIBITORY CONCENTRATION MIC, Human Serum
  MIC: > 64 µg/mL
E. coli GC 2233; GC2233, read-out: MINIMAL INHIBITORY CONCENTRATION MIC, Mouse Serum
  MIC: > 64 µg/mL
E. coli GC 2233; GC2233, read-out: MINIMAL INHIBITORY CONCENTRATION MIC, Water
  MIC: > 64 µg/mL
E. coli GC 2234; GC2234, read-out: MINIMAL INHIBITORY CONCENTRATION MIC, Human Serum
  MIC: > 64 µg/mL
E. coli GC 2234; GC2234, read-out: MINIMAL INHIBITORY CONCENTRATION MIC, Mouse Serum
  MIC: > 64 µg/mL
E. coli GC 2234; GC2234, read-out: MINIMAL INHIBITORY CONCENTRATION MIC, Water
  MIC: > 64 µg/mL
E. coli GC 2270; GC2270, read-out: MINIMAL INHIBITORY CONCENTRATION MIC, Human Serum
  MIC: > 64 µg/mL
E. coli GC 2270; GC2270, read-out: MINIMAL INHIBITORY CONCENTRATION MIC, Mouse Serum
  MIC: > 64 µg/mL
E. coli GC 2270; GC2270, read-out: MINIMAL INHIBITORY CONCENTRATION MIC, Water
  MIC: > 64 µg/mL
E. coli GC 2271; GC2271, read-out: MINIMAL INHIBITORY CONCENTRATION MIC, Human Serum
  MIC: 64 µg/mL (≈ 99.4 µM)
E. coli GC 2271; GC2271, read-out: MINIMAL INHIBITORY CONCENTRATION MIC, Mouse Serum
  MIC: 64 µg/mL (≈ 99.4 µM)
E. coli GC 2271; GC2271, read-out: MINIMAL INHIBITORY CONCENTRATION MIC, Water
  MIC: > 64 µg/mL
E. coli GC 4559; GC4559, read-out: MINIMAL INHIBITORY CONCENTRATION MIC, Human Serum
  MIC: > 64 µg/mL
E. coli GC 4559; GC4559, read-out: MINIMAL INHIBITORY CONCENTRATION MIC, Mouse Serum
  MIC: > 64 µg/mL
E. coli GC 4559; GC4559, read-out: MINIMAL INHIBITORY CONCENTRATION MIC, Water
  MIC: > 64 µg/mL
E. coli GC 4560; GC4560, read-out: MINIMAL INHIBITORY CONCENTRATION MIC, Human Serum
  MIC: 1 µg/mL (≈ 1.55 µM)
E. coli GC 4560; GC4560, read-out: MINIMAL INHIBITORY CONCENTRATION MIC, Mouse Serum
  MIC: 1 µg/mL (≈ 1.55 µM)
E. coli GC 4560; GC4560, read-out: MINIMAL INHIBITORY CONCENTRATION MIC, Water
  MIC: 2 µg/mL (≈ 3.11 µM)
E. coli GC 6465; GC6465, read-out: MINIMAL INHIBITORY CONCENTRATION MIC, Human Serum
  MIC: > 64 µg/mL
E. coli GC 6465; GC6465, read-out: MINIMAL INHIBITORY CONCENTRATION MIC, Mouse Serum
  MIC: > 64 µg/mL
E. coli GC 6465; GC6465, read-out: MINIMAL INHIBITORY CONCENTRATION MIC, Water
  MIC: > 64 µg/mL
E. coli GC 3226; GC3226, read-out: MINIMAL INHIBITORY CONCENTRATION MIC, Human Serum
  MIC: > 64 µg/mL
E. coli GC 3226; GC3226, read-out: MINIMAL INHIBITORY CONCENTRATION MIC, Mouse Serum
  MIC: > 64 µg/mL
E. coli GC 3226; GC3226, read-out: MINIMAL INHIBITORY CONCENTRATION MIC, Water
  MIC: > 64 µg/mL
E. coli GC 2203; GC2203, read-out: MINIMAL INHIBITORY CONCENTRATION MIC, Human Serum
  MIC: > 64 µg/mL
E. coli GC 2203; GC2203, read-out: MINIMAL INHIBITORY CONCENTRATION MIC, Mouse Serum
  MIC: > 64 µg/mL
E. coli GC 2203; GC2203, read-out: MINIMAL INHIBITORY CONCENTRATION MIC, Water
  MIC: > 64 µg/mL
E. coli GC 1073; GC1073, read-out: MINIMAL INHIBITORY CONCENTRATION MIC, Human Serum
  MIC: > 64 µg/mL
E. coli GC 1073; GC1073, read-out: MINIMAL INHIBITORY CONCENTRATION MIC, Mouse Serum
  MIC: > 64 µg/mL
E. coli GC 1073; GC1073, read-out: MINIMAL INHIBITORY CONCENTRATION MIC, Water
  MIC: > 64 µg/mL
S. typhimurium GC 2172; read-out: MINIMAL INHIBITORY CONCENTRATION MIC, Human Serum
  MIC: > 64 µg/mL
S. typhimurium GC 2172; read-out: MINIMAL INHIBITORY CONCENTRATION MIC, Mouse Serum
  MIC: > 64 µg/mL
S. typhimurium GC 2172; read-out: MINIMAL INHIBITORY CONCENTRATION MIC, Water
  MIC: > 64 µg/mL
S. aureus GC 6466; GC6466, read-out: MINIMAL INHIBITORY CONCENTRATION MIC, Human Serum
  MIC: 4 µg/mL (≈ 6.21 µM)
S. aureus GC 6466; GC6466, read-out: MINIMAL INHIBITORY CONCENTRATION MIC, Mouse Serum
  MIC: 4 µg/mL (≈ 6.21 µM)
S. aureus GC 6466; GC6466, read-out: MINIMAL INHIBITORY CONCENTRATION MIC, Water
  MIC: 8 µg/mL (≈ 12.4 µM)
S. aureus GC 6467; GC6467, read-out: MINIMAL INHIBITORY CONCENTRATION MIC, Human Serum
  MIC: 4 µg/mL (≈ 6.21 µM)
S. aureus GC 6467; GC6467, read-out: MINIMAL INHIBITORY CONCENTRATION MIC, Mouse Serum
  MIC: 4 µg/mL (≈ 6.21 µM)
S. aureus GC 6467; GC6467, read-out: MINIMAL INHIBITORY CONCENTRATION MIC, Water
  MIC: 8 µg/mL (≈ 12.4 µM)
S. aureus GC 1079; GC1079, read-out: MINIMAL INHIBITORY CONCENTRATION MIC, Human Serum
  MIC: 2 µg/mL (≈ 3.11 µM)
S. aureus GC 1079; GC1079, read-out: MINIMAL INHIBITORY CONCENTRATION MIC, Mouse Serum
  MIC: 2 µg/mL (≈ 3.11 µM)
S. aureus GC 1079; GC1079, read-out: MINIMAL INHIBITORY CONCENTRATION MIC, Water
  MIC: 4 µg/mL (≈ 6.21 µM)
S. aureus GC 6335; GC6335, read-out: MINIMAL INHIBITORY CONCENTRATION MIC, Human Serum
  MIC: 8 µg/mL (≈ 12.4 µM)
S. aureus GC 6335; GC6335, read-out: MINIMAL INHIBITORY CONCENTRATION MIC, Mouse Serum
  MIC: 8 µg/mL (≈ 12.4 µM)
S. aureus GC 6335; GC6335, read-out: MINIMAL INHIBITORY CONCENTRATION MIC, Water
  MIC: 8 µg/mL (≈ 12.4 µM)
S. aureus GC 6469; GC6469, read-out: MINIMAL INHIBITORY CONCENTRATION MIC, Human Serum
  MIC: 2 µg/mL (≈ 3.11 µM)
S. aureus GC 6469; GC6469, read-out: MINIMAL INHIBITORY CONCENTRATION MIC, Mouse Serum
  MIC: 2 µg/mL (≈ 3.11 µM)
S. aureus GC 6469; GC6469, read-out: MINIMAL INHIBITORY CONCENTRATION MIC, Water
  MIC: 4 µg/mL (≈ 6.21 µM)
E. faecium GC 4556; GC4556, read-out: MINIMAL INHIBITORY CONCENTRATION MIC, Human Serum
  MIC: 4 µg/mL (≈ 6.21 µM)
E. faecium GC 4556; GC4556, read-out: MINIMAL INHIBITORY CONCENTRATION MIC, Mouse Serum
  MIC: 4 µg/mL (≈ 6.21 µM)
E. faecium GC 4556; GC4556, read-out: MINIMAL INHIBITORY CONCENTRATION MIC, Water
  MIC: 4 µg/mL (≈ 6.21 µM)
S. pyogenes GC 4563; GC4563, read-out: MINIMAL INHIBITORY CONCENTRATION MIC, Human Serum
  MIC: 0.5 µg/mL (≈ 0.777 µM)
S. pyogenes GC 4563; GC4563, read-out: MINIMAL INHIBITORY CONCENTRATION MIC, Mouse Serum
  MIC: 1 µg/mL (≈ 1.55 µM)
S. pyogenes GC 4563; GC4563, read-out: MINIMAL INHIBITORY CONCENTRATION MIC, Water
  MIC: 2 µg/mL (≈ 3.11 µM)
S. agalactiae GC 4564; GC4564, read-out: MINIMAL INHIBITORY CONCENTRATION MIC, Human Serum
  MIC: 4 µg/mL (≈ 6.21 µM)
S. agalactiae GC 4564; GC4564, read-out: MINIMAL INHIBITORY CONCENTRATION MIC, Mouse Serum
  MIC: 4 µg/mL (≈ 6.21 µM)
S. agalactiae GC 4564; GC4564, read-out: MINIMAL INHIBITORY CONCENTRATION MIC, Water
  MIC: 4 µg/mL (≈ 6.21 µM)
